Test results from US20210269483A1, “PEPTIDE COMPOUNDS” (ULTUPHARMA AB, priority 2018, published 2021).
Converted amounts (≈) assume the structure as drawn. Where two headings read alike, the source gives them in different places. Starred links: 1 amine or outer side, 2 acyl side, 3 side chain; linkers in the order of their positions; H or OH if unused. Positions of bridges follow the written chain, without caps; N, C: chain ends. Non-standard residues stand in square brackets, D forms with d. Residues, ends and D or L forms follow the SMILES beside them. X3 = CC(C)CCCCCCC[C@H](CC(=O)[*:1])O[*:2]; X2 = CCCCCCC[C@H](CC(=O)[*:1])O[*:2]; Val(3-OH) = CC(C)(O)[C@H](N)C(=O)O; X1 = C/C=C(/N[*:1])C(=O)[*:2]; Dab = NCC[C@H](N)C(=O)O; Dap = NC[C@H](N)C(=O)O

How the values were obtained:
S. aureus [1] = format: cell-based, Staphylococcus aureus
Excerpt: (§1) 2015. M7-A10. Methods for dilution antimicrobial susceptibility tests for bacteria that grow aerobically, 10th ed. Approved standard. CLSI, Wayne, Pa.).
(§2) A) In the broth micro-dilution method, the test media were either AM3 Broth (BD Difco Ltd) mixed with phosphate buffered saline (PBS, Amresco LLC, Solon, USA) in 1:4 ratio (E. colt A. baumannii, Enterobacter cloacae, Klebsiella pneumonia and P. aeruginosa), AM3 Broth mixed with PBS in 1:1 ratio (S. aureus) or Malt Extract (ME; 15 g Malt Extract Dico Ltd. in 1000 mL deionized H2O; Aspergillus fumigatus). Prior to MIC-tests, the bacterial cell concentration/fungal spore concentration was adjusted to between 1 and 5×10^5 cells/spores per mL. […] Afterwards, suspensions of pathogen cells in the appropriate medium were dispensed to the wells of microtiter plates and the growth of pathogens were monitored after 16 to 20 h of incubation at 37° C. in the dark. Positive control comprised respective pathogen cells suspended in untreated sterile appropriate media without addition of compounds(s) and negative control comprised the medium only. The MIC was defined as the lowest concentration of each compound with no visible growth of pathogen. All MIC tests were performed in duplicate and/or triplicate and repeated at least twice.

E. coli [2] = format: cell-based, Escherichia coli
Excerpt: as §1, §2

E. cloacae = format: cell-based, Enterobacter cloacae
Excerpt: as §1, §2

K. pneumoniae [3] = format: cell-based, Klebsiella pneumonia
Excerpt: as §1, §2

[4] = system: carbapenem resistant strains of E. coil, P. aeruginosa and A. baumannii; format: cell-based
Excerpt: as §1

K. pneumoniae [5] = format: cell-based, Klebsiella pneumonia; details: K. pneumoniae EN011, 1161486a (efflux-defective), method B
Excerpt: as §1

A. baumannii [6] = format: cell-based, Acinetobacter baumannii
Excerpt: as §1, §2

HepG2 = system: HepG2
Method: (§3) IC50, haemolysis rate and frequency of resistance (FoR, Table 4) was determined using standard protocols by different CROs.

[7] = Method: as §3
P. aeruginosa [8] = format: cell-based, Pseudomonas aeruginosa
Excerpt: as §1, §2

S. aureus [9] = format: cell-based, Staphylococcus aureus; remark: listed apart in the source
Excerpt: as §1

P. aeruginosa [10] = format: cell-based, Pseudomonas aeruginosa; details: P. aeruginosa EN005, PAO750 (efflux-defective), method B
Excerpt: as §1

As. fumigatus = format: cell-based, Aspergillus fumigatus
Excerpt: as §1, §2

E. coli [11] = format: cell-based, Escherichia coli; details: E. coli EN003, D22 (lps mutant, hypersensitive), method B
Excerpt: as §1

A. baumannii [12] = format: cell-based, Acinetobacter baumannii; remark: listed apart in the source
Excerpt: as §1

[13] = method A, only lower limit of concentration range shown ("16" means "16-32")

Compound	MIC S. aureus LMG15975 (S. aureus [1]) [µg/mL]	MIC E. coli LMG15862 (E. coli [2]) [µg/mL]	MIC E. cloacae LMG2783T (E. cloacae) [µg/mL]	MIC K. pneumonia LMG20218 (K. pneumoniae [3]) [µg/mL]	MIC A. baumannii LMG1041T (A. baumannii [6]) [µg/mL]	IC50 (HepG2) (HepG2) [µg/mL]	MIC P. aeruginosa LMG6395 (P. aeruginosa [8]) [µg/mL]	MIC S. aureus LMG15975 (S. aureus [1]; [13]) [µg/mL]	MIC E. coli LMG15862 (E. coli [2]; [13]) [µg/mL]	MIC E. cloacae LMG2783T (E. cloacae; [13]) [µg/mL]	MIC K. pneumonia LMG20218 (K. pneumoniae [3]; [13]) [µg/mL]	MIC A. baumannii LMG1041T (A. baumannii [6]; [13]) [µg/mL]	IC50 (HepG2) (HepG2; HepG2, determined by a CRO) [µg/mL]	MIC P. aeruginosa LMG6395 (P. aeruginosa [8]; [13]) [µg/mL]	further results
C/C=C1/NC(=O)[C@H](CCN)NC(=O)[C@H](CC(C)C)NC(=O)[C@H](CN)NC(=O)C[C@@H](CCCCCCC)OC(=O)[C@H](CC(=O)O)NC(=O)[C@H](C(C)(C)O)NC(=O)[C@@H](Cc2ccccc2)NC(=O)[C@H](CN)NC(=O)[C@H]([C@@H](C)O)NC1=O [U747, cyclo-((R)-3-hydroxydecanoyl-L-DAPA-L-Leu-L-DABA-(E)-ABA-L-Thr-L-DAPA-D-Phe-L-OHVal-L-Asp)] ([Dap]L[Dab][X1]T[Dap][dF][Val(3-OH)]D; linker N-C via X2)	>32	2 (≈ 1.79 µM)	2 (≈ 1.79 µM)	2 (≈ 1.79 µM)	1 (≈ 0.895 µM)	50 (≈ 44.8 µM)	8 (≈ 7.16 µM)	–	–	–	–	–	–	–	MIC (S. aureus [1]): >32 µg/mL; MIC (E. coli [2]): 2 to 4 µg/mL; MIC (E. cloacae): 2 to 4 µg/mL; MIC (K. pneumoniae [3]): 2 to 4 µg/mL; MICs against carbapenem resistant strains, highest [4]: 2 to 4 µg/mL; MICs against carbapenem resistant strains, lowest [4]: 0.5 to 1 µg/mL; MIC (K. pneumoniae [5]): 8 µg/mL (≈ 7.16 µM); MIC (A. baumannii [6]): 1 to 2 µg/mL; toxicity (IC50) against human cell lines (HepG2): low toxicity; Haemolysis rate ([7]; 100 μM): 0.6%; haemolysis rates ([7]; in words): acceptable; MIC (P. aeruginosa [8]): 8 to 16 µg/mL; MIC (S. aureus [9]): 64 µg/mL (≈ 57.3 µM); MIC (P. aeruginosa [10]): 32 µg/mL (≈ 28.6 µM); MIC (As. fumigatus): 16 to 32 µg/mL; MIC (E. coli [11]): 4 µg/mL (≈ 3.58 µM); MIC (A. baumannii [12]): 1 to 2 µg/mL; MIC (A. baumannii [12]; A. baumanii EN007, WT, method B): 8 µg/mL (≈ 7.16 µM); MIC (A. baumannii [12]; A. baumanii EN016, BM4454 8, method B): 8 µg/mL (≈ 7.16 µM); MIC (A. baumannii [12]; A. baumanii EN017, BM4652 (efflux-defective), method B): 8 µg/mL (≈ 7.16 µM)
C/C=C1/NC(=O)[C@H](CCN)NC(=O)[C@H](CC(C)C)NC(=O)[C@H](CC(N)=O)NC(=O)C[C@@H](CCCCCCCC(C)C)OC(=O)[C@H](CC(=O)O)NC(=O)[C@H](C(C)C)NC(=O)[C@@H](Cc2ccccc2)NC(=O)[C@H](CN)NC(=O)[C@H]([C@@H](C)O)NC1=O [U824, cyclo-((R)-3-hydroxy-11-methyldodecanoyl-L-Asn-L-Leu-L-DABA-ABA-L-Thr-L-DAPA-D-Phe-L-Val-L-Asp)] (NL[Dab][X1]T[Dap][dF]VD; linker N-C via X3)	>32	16 (≈ 13.7 µM)	>32	>32	16 (≈ 13.7 µM)	35 (≈ 29.9 µM)	>32	–	–	–	–	–	–	–	–
Table 2 cyclic lipodepsipeptide: R C10H21; Asn-Leu-DABA-ABA-Thr-DAPA-Phe-OHVal-Asp [U810]	–	–	–	–	–	–	–	16	8	8	>32	8	15	>32	–
Table 2 cyclic lipodepsipeptide: R C8H17; DAPA-Leu-DABA-ABA-Thr-DAPA-Phe-OHVal-Asp [U751]	–	–	–	–	–	–	–	16	2	4	4	4	29	8	–
Table 2 cyclic lipodepsipeptide: R C9H17; DAPA-Leu-DABA-ABA-Thr-DAPA-Phe-Val-Asp [U771]	–	–	–	–	–	–	–	2	1	2	2	1	9	2	–
